Data set [1] deals with ex-vivo healthy swine arterial tissue. Briefly: Fluorescence microscopy of ex-vivo arterial tissue cross-sections after delivery of 10-8-10 Dimer. Type of data set: in vitro ADME. The following applies: 2 mg/mL for five minutes, 60x fluorescence microscopy. Here is the method: FIGS. 32A and B are fluorescence microscopy images of ex-vivo healthy swine arterial tissue cross-section delivered with 2 mg/mL 10-8-10 Dimer for five minutes; wherein (A) is a fluorescence image at 60× magnification and (B) is at 60× magnification with fluorescence and greyscale overlay. FIGS. 32A and B are 60× fluorescence microscopy images of ex-vivo healthy swine arterial tissue cross-sections treated with 2 mg/mL 10-8-10 Dimer for five minutes; wherein (A) is a fluorescence image and (B) is a fluorescence and greyscale overlay.

Data set [2] relates to esophageal tissue in a healthy swine in vivo esophagus. In words: Crosslink healthy in vivo esophagus at two power levels (delivery, soak, balloon dilatation, light activation). Also noted: species or system Yorkshire Cross swine. The source says:
More specifically, this study evaluated the logistics for esophageal placement of compound I(a) with the use of contrast media, the crosslinking effects of compound I(a), and acute retention of dilation in an in vivo swine model.
An Olympus GIF-140 Endoscope was used in this study. Fluoroscopy was utilized throughout the procedures for confirmation of equipment placement, sample delivery, and removal.
A 60-65 kg Yorkshire Cross (18P118) was used to establish the logistical techniques of the procedure. The animal was fasted for 24 hours prior to the procedure commencing. Post anesthesia swine 18P118 was positioned supinely (on its back) with the surgical table flat. A lavage was performed to flush any remaining contents from the esophagus and stomach. The endoscope was lubricated with a dime size amount of water based Astroglide and inserted into the mouth, passed by the epiglottis, around the pharyngeal diverticulum, through the esophagus and into the stomach. At insertion, the esophagus was partially open, (<5 mm diameter) circular and smooth. The esophagus formed around the catheter and the endoscope inserted instruments, ranging from 4 mm to 12.74 mm in diameter. The endoscope incremental measurements were used to determine the endoscope placement from the front incisor (zero reference point) to the lower esophageal sphincter (71 cm) with the designated working area being between 30 and 60 cm. The endoscope was maintained in the esophagus for the entire procedure.
Using the endoscope, the Edwards Fogarty occlusion catheter and the Vista Brite tip guide catheter were guided down the esophagus and positioned at the 45 cm mark. Positioning them simultaneously, then holding during inflation prevented slippage of the catheters during balloon inflation. The mucosa is loosely attached to the muscularis; the movement of any device in contact with the mucosa influenced the positioning of all inserted devices. […]
Once the volume required to fill the treatment zone was determined the contrast medium was removed. […]

The test system of data set [3] is esophageal strictures generated by endoscopic mucosal resection (EMR). In words: Esophageal stricture (endoscopic mucosal resection) formation and treatment with compound I(a) plus PTA with light in minipigs. Type of data set: in vivo, Yucatan minipigs. The source says:
Five healthy Yucatan minipigs (20-28 kg) were enrolled in the study. For the EMR procedure, each animal was monitored and maintained under anesthesia throughout the duration of the procedure. Each animal was placed in a supine position and elevated to a 5-12 degrees reverse Trendelenburg position, to aid in keeping gastric fluids from coming into the EMR procedural area. A water base lubricant (Astroglide) was used to aid at every insertion of the endoscope.
The upper GI was intubated and surveyed for abnormalities and gastric fluid content via a GIF-XQ140 endoscope. Of the five animals, three animals underwent lavage to remove excess fluid and debris from the esophagus and gastric lumen by washing with saline and suctioning out fluid/debris. A fluoroscopic esophagogram was taken of the target area with the endoscope in place (FIG. 1). The distal tip was measured with a calibrated digital caliper and the measurement was used to calibrate the fluoroscopic measurement tool. […] All representative fluoroscopic and endoscopic imagery are from animal 19P39 unless otherwise stated.
The scope tip was positioned within ±3 cm of the target site. Suction was applied through the gastroscope to visualize the esophageal mucosa at the distal attachment (DA) and to visualize the injection range to capture approximately three-fourths of the esophageal lumen at the target site. The needle from the disposable EMR kit was inserted through the endoscope biopsy channel and into the endoscope field of view (FIG. 2A). The injector slider was pushed until it clicked into position to extend the needle from the sheath. A 10 mL syringe with saline was connected to the injector port. Suction was applied and the injector needle advanced to pierce the target mucosa and to inject a bolus of saline (FIG. 2B). The target area was injected with 0.5 mL to 2.0 mL of saline multiple times to reach a coverage of approximately three-fourths circumference of the target area. Following injections suction was released, and the needle withdrawn from the biopsy channel for insertion of the snare.
The snare was used to remove the blistered mucosal tissue from the treated area. The snare was retracted and inserted into the biopsy channel and advanced into the field of view with the distal sheath. The snare was connected to the electrosurgical unit (Olympus PSD-20). The electrosurgical unit has two settings, one setting is CUT, which is used to cut the tissue and the other setting is COAG, which is used to cauterize the tissue. The snare loop tip was slowly extended approximately 5-10 mm beyond the DA, and CUT was activated marking the base of the tissue bolus by cauterizing the mucosa (FIG. 3A). Suction was used to draw the tissue bolus partially into the DA, and CUT was activated to separate the target mucosa from the submucosa/muscularis. The snare loop was also used as a lasso to remove the partially resected mucosa by cinching the snare closed around the resection (FIG. 3B) and activating the CUT pedal and COAG pedal as needed. The tissue that was not easily removed with the snare was removed with a coagrasper (FIG. 3C). The natural contraction movements of the esophagus posed some difficulty with maintaining a perfect depth to only exposing the submucosal tissue and to maintaining a consistent resection length throughout the resected area. For some animals there were portions of muscularis tissue exposed and some spiraling to the resected area due to the esophageal contractions (FIG. 4). Following the EMR a post procedural fluoroscopic esophagogram (FIG. 5) was taken and the animal recovered from anesthesia.
The EMR in the target area span approximately 270 degrees circumference and less than 2 cm wide.
On Day 21, post stricture induction, animals underwent anesthesia for evaluation of stricture formation and for stricture treatment. No lavage was needed to the esophagus or gastric lumen to complete the treatment on any of the animals. […]

The test system of data set [4] is ex-vivo healthy swine esophageal tissue. Briefly: Fluorescence microscopy of ex-vivo esophageal tissue cross-section after delivery of 10-8-10 Dimer. Type of data set: in vitro ADME. Here is the method:
FIGS. 34A and B are fluorescence microscopy images of ex-vivo healthy swine esophageal tissue cross-section delivered with 4 mg/mL 10-8-10 Dimer for five minutes; wherein (A) is a fluorescence image at 4× magnification, and (B) is at 4× magnification with the fluorescence and greyscale overlay). FIGS. 34A and B are 4× fluorescence microscopy images of ex-vivo healthy swine esophageal tissue cross-section treated with 4 mg/mL 10-8-10 Dimer for five minutes; wherein (A) is a fluorescence image, and (B) is the fluorescence and greyscale overlay. As shown therein, The penetration of 10-8-10 Dimer into ex-vivo esophageal tissue is also vastly different from arterial tissue penetration. […] Treatment with 2 mg/ml of 10-8-10 Dimer was ineffective. In contrast to the treatment of arterial tissue, the 10-8-10 Dimer was efficacious at a concentration 100% greater.

[5] abbreviates: Study Day 21, fluoroscopic, PTA + compound I(a) w/light, one row per animal.
[6] abbreviates: Study Day 49 necropsy, cross-section of esophagus, compound I(a) + PTA w/ light, one row per animal.
Where [7] appears, read: 4 mg/mL for five minutes, 4x fluorescence microscopy.

Values joined by “and” are separate entries in the source; they are usually repeats but may differ in a detail not shown here. Identical values can stand only once. “Also recorded” adds a separate entry of the source.

As for `NCCOCCOCCNc1ccc2c3c(cccc13)C(=O)N(CCOCCOCCN1C(=O)c3cccc4c(NCCOCCOCCN)ccc(c34)C1=O)C2=O` [compound I(a)], in data set [1], the “penetration into arterial tissue (fluorescence)” value was “penetrated through the arterial intima and into the media”. For the same compound, the “crosslinking of the esophageal tissue (esophagus open at treated sites)” value in data set [2] (10 mg/mL, 10 min soak, balloon dilatation, laser 74 mW/cm2 (site A) or 32 mW/cm2 (sites B, C) for 2 minutes) is “indications of potential crosslinking were seen at multiple sites; also recorded: opening at sites A, B and C indicate a crosslinking of the esophageal tissue”. In data set [2] (8 mL of compound I(a) 10 mg/mL in PBS, 10 minutes soak, treatment sites A, B, C, endoscopic observation), the “penetration of esophageal tissue (yellow coloration of the tissue)” value was “penetration was observed; also recorded: yellow coloration of the tissue is indicative of compound I(a) penetration; also recorded: yellow coloration of the esophagus confirmed delivery”. In addition, the “irritation of the esophagus on endoscopy or necropsy examination” value in data set [2] (post treatment, entire length of the esophagus, slight irritation at site C attributed to TAPAS catheter) was “No significant irritation”. Also, in data set [3] (10 mg/ml in PBS, 10 minutes soak, Day 21), the “penetration at stricture site (yellow coloration of the esophagus)” value is given as “Yellow coloration of the esophagus was observed indicating penetration”. Moreover, the “abnormalities of the entire esophagus via endoscope imaging” value in data set [3] (Day 21 post treatment, compound I(a) plus PTA balloon with light animals, other than the stricture area) was “no abnormalities were seen”. In addition, the “re-epithelialization (pathology report)” value in data set [3] (Day 49 microscopic evaluation, compound I(a) plus PTA balloon with light) is on record as “complete”. For the same compound, the “Diameter of Stricture (mm) 0 min. post TX” value in data set [3] (Study Day 21, fluoroscopic, PTA + compound I(a) (10 mg/ml in PBS, 10 min soak) w/light 74 mW/cm2, one row per animal) was 15.88 mm and 13.0 mm and 12.4 mm. In data set [3] (setting [5]), the “Diameter of Stricture (mm) 30 min. post TX” value is 17.13 mm and 7.5 mm and 14.8 mm; the “Diameter of Stricture (mm) 60 min. post TX” value is 13.8 mm and 8.5 mm and 10.9 mm. The “Length of Stricture (mm) Endoscopic scan post TX” value in data set [3] (Study Day 21, post treatment, PTA + compound I(a) w/light, one row per animal) is 30 mm (2×) and 17 mm. Moreover, in data set [3] (Study Day 49 (four weeks post treatment), compound I(a) + PTA w/light, one row per animal), the “Length of Stricture (mm) Fluoroscopic” value is 12.6 mm (2×) and 12.8 mm. Moreover, in data set [3] (setting [6]), the “Stricture Length” value is 3-11 millimeters and 5 millimeters and 25 millimeters; the “Stricture Width” value was 12 millimeters and 10 millimeters and 7 millimeters. Also, in data set [3] (Table 3, Study Day 49 (four weeks post treatment), fluoroscopic, compound I(a) + PTA w/light, one row per animal), the “Diameter of Stricture Post TX” value is 4.9 mm and 6.0 mm and 7.4 mm. Also, the “Diameter of Stricture Post TX” value in data set [3] (Table 10, post treatment, 29 days apart, compound I(a) + PTA w/light, one row per animal, in mm) was 6.0 and 7.4 and 4.9. For the same compound, the “percent gain at the stricture site post-treatment” value in data set [3] (all compound I(a) plus PTA balloon with light treated animals, Table 10) is listed as “increase in percent gain”. Moreover, in data set [3] (before and post treatment 29 days apart, compound I(a) + PTA w/light, one row per animal), the “% Stricture Diameter Change Before and Post Treatment” value was 22.4% and 94.7% and 169%. Further, the “restoring the esophagus to a healthier diameter and movement” value in data set [3] (compound I(a) plus PTA balloon with light, in comparison with PTA balloon only treatment (19P38)) was “better success”. For the same compound, the retention of dilation entry in data set [3] (four weeks after treatment with compound I(a) crosslinking) was “demonstrated retention of dilation”. Moreover, the “treatment of esophageal tissue at 2 mg/ml” value in data set [4] (2 mg/ml) was “ineffective”. In data set [4] (setting [7]), the “fluorescence in the submucosa or muscularis” value is on record as “no significant fluorescence” and the “location of 10-8-10 Dimer fluorescence in esophageal tissue” value was “preponderance of 10-8-10 Dimer fluorescence is in the epithelium”. For the same compound, the “treatment of esophageal tissue at higher concentration” value in data set [4] (concentration 100% greater than for arterial tissue (4 mg/mL vs 2 mg/mL)) is recorded as “efficacious”.

The record behind these values is patent US12295949B2, “Treatment of the gastrointestinal tract with dimeric naphthalimide compounds” (Alumend, LLC, priority 2022, dated 2025).
